For test [1], the target named is T1, human PI3Kδ enzyme (Homo sapiens, UniProt O00329).
T1 construct: purchased Millipore Corporation 14-604
Kind of test: PI3Kδ enzyme inhibitory activity (PI3-Kinase HTRF Assay kit). The test is classed as biochemical. The note with it: human PI3Kδ 10 ng/well, ATP 30 μM, PIP2 10 μM, room temperature 30 minutes. How it is done:
1. PI3Kδ Enzyme Inhibitory Activity
For the experiment, a PI3-Kinase HTRF Assay kit (Millipore Corporation, Catalogue No. 33-016) and a human PI3Kδ enzyme (Millipore Corporation, Catalogue No. 14-604) were used. The measurement method was in accordance with the appended instructions. The overview thereof is as follows.
PI3Kδ (10 ng/well), phosphatidylinositol-4,5-bisphosphate (10 μM), ATP (30 μM), and the test compound were mixed in a 384-well plate (total 20 μL), and incubated at room temperature for 30 minutes. EDTA and biotinylated phosphatidylinositol-3,4,5-triphosphate were added thereto to stop the reaction. Thereafter, a Europium labeled anti-GST antibody, a GST bond GRP1 PH domain, and streptavidin-APC were added thereto, followed by incubation overnight. An HTRF ratio was measured using an HTRF plate reader. The IC50 value of the compound was calculated, taking the inhibition rate without addition of the enzyme as 100% and the inhibition rate without addition of the test compound as 0%, by means of a logistic method.
(§1) In the Table, Ex represents Example Compound No. as described later, PI3Kδ represents the IC50 value (nM) of a PI3Kδ enzyme inhibitory activity, and PI3Kα represents the IC50 value (nM) of a PI3Kα enzyme inhibitory activity.
In general terms: Time-resolved FRET reads energy transfer from a long-lived donor to a nearby acceptor.

In test [2] the target is T2, Human PI3Kα (Homo sapiens, UniProt P42336).
T2 construct: purchased Millipore Corporation 14-602
T2 sequence (P42336 whole entry): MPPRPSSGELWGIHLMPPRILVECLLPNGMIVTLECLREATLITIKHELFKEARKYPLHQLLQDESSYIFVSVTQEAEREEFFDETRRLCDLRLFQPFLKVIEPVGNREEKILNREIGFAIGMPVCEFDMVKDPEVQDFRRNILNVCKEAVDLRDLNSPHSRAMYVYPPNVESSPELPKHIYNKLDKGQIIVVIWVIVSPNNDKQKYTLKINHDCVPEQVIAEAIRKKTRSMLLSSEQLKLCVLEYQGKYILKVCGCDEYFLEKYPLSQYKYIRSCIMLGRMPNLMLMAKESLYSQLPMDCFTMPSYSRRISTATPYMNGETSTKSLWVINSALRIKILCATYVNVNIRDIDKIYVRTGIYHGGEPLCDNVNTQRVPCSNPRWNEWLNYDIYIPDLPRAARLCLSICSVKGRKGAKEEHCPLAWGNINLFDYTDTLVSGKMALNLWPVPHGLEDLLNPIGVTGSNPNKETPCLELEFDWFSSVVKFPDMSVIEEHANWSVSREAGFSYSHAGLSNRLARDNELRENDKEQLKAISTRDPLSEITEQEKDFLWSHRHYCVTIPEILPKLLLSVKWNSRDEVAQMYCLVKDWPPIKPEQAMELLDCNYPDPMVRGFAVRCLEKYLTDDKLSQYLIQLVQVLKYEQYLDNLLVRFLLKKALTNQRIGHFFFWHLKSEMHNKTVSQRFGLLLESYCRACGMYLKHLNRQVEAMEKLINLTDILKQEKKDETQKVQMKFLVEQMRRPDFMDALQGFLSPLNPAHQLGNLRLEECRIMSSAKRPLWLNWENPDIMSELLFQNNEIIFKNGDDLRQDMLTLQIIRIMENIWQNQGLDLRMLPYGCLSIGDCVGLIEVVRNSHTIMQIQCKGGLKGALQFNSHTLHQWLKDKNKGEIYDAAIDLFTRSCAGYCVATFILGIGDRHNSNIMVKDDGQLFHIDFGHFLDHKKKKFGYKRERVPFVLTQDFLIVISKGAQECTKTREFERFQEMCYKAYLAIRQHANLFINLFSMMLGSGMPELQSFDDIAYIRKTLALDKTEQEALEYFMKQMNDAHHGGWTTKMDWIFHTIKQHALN
T2 sequence (P27986 whole entry partner): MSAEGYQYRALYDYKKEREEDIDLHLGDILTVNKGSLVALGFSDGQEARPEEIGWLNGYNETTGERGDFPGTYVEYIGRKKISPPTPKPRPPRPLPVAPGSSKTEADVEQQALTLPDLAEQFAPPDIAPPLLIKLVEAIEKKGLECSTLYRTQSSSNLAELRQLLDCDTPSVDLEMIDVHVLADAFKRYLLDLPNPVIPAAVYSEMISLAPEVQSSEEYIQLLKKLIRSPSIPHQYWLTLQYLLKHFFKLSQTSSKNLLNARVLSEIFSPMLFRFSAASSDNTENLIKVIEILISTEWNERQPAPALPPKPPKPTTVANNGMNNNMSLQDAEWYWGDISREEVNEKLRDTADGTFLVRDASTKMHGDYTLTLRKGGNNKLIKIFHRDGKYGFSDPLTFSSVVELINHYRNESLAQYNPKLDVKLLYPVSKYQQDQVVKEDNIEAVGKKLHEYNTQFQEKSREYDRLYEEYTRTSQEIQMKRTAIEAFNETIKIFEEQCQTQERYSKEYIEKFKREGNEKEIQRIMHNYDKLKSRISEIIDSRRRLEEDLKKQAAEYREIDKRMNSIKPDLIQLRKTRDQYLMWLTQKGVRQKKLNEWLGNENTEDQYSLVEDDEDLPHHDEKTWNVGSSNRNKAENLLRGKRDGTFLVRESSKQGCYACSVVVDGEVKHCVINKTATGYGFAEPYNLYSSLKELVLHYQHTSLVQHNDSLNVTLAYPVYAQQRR
Kind of test: PI3Kα enzyme inhibitory activity (Kinase-Glo Plus luminescence). It is filed as biochemical. To be noted: Human PI3Kα 12 ng/well, phosphatidylinositol 0.2 μg/well, 37° C. for 3 hours. How it is done:
2. PI3Kα Enzyme Inhibitory Activity
Human PI3Kα (12 ng/well, Millipore Corporation, Catalogue No. 14-602), phosphatidylinositol (0.2 μg/well), and the test compound were mixed in a 384-well plate in a reaction buffer (50 mM Hepes, 10 mM NaCl, 10 mM MgCl2, 2 mM EGTA, 2 mM DTT, pH 7.3) (total 10 μl), and incubated at 37° C. for 3 hours. After the reaction, 10 μL of a Kinase-Glo Plus reagent (Promega, Catalogue No. V3772) was added thereto, and a luminescence was measured with a luminometer. The IC50 value of the compound was calculated, taking the inhibition rate without addition of the enzyme as 100% and the inhibition rate without addition of the test compound as 0%, by a logistic method.
as §1
(In general: Kinase-Glo reads ATP consumption through a luciferase reaction.)

The results in this text go back to patent US20120165309A1, “HETERO RING DERIVATIVE” (Astellas Pharma Inc., priority 2009, published 2012).

T1 sequence (O00329 whole entry): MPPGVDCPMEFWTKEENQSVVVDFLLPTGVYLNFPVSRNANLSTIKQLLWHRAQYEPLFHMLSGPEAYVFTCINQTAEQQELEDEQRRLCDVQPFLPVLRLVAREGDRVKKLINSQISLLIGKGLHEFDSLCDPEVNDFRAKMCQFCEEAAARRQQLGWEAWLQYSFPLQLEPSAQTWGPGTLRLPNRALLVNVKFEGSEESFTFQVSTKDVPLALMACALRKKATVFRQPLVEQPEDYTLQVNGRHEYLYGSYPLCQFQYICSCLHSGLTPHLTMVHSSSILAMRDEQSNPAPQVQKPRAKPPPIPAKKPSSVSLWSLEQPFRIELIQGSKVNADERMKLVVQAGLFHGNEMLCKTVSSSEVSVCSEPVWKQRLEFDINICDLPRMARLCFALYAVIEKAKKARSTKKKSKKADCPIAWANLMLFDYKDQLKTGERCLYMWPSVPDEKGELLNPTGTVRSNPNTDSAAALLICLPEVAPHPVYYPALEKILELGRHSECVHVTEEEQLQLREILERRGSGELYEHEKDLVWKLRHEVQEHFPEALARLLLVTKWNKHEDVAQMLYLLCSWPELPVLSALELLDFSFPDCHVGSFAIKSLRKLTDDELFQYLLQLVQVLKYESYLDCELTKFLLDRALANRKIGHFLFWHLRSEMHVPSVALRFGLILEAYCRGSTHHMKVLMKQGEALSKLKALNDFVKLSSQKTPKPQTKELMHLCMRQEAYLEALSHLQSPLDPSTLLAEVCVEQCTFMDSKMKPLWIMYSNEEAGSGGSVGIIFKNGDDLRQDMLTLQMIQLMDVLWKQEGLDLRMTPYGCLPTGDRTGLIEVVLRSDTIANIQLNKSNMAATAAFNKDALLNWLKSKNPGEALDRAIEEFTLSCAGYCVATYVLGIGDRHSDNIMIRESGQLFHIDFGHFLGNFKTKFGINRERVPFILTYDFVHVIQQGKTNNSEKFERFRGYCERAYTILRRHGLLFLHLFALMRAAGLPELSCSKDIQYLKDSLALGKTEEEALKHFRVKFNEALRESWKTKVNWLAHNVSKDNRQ
T1 sequence (P27986 whole entry partner): as the sequence (P27986 whole entry partner) above

A word on the IC50: it is the midpoint of a concentration-inhibition curve. With `CNC(=O)N[C@H]1CC[C@H](Nc2nc(N3CCOCC3)nc(-n3c(C(F)F)nc4ccccc43)n2)CC1` [Example 5, 1-[trans-4-({4-[2-(difluoromethyl)-1H-benzimidazol-1-yl]-6-morpholin-4-yl-1,3,5-triazin-2-yl}amino)cyclohexyl]-3-methylurea], the IC50 in test [1] is 0.011 µM; in test [2], 0.21 µM.
For `O=C(NCCN1CCOCC1)N[C@H]1CC[C@H](Nc2nc(N3CCOCC3)nc(-n3c(C(F)F)nc4ccccc43)n2)CC1` [Example 6, 1-[trans-4-({4-[2-(difluoromethyl)-1H-benzimidazol-1-yl]-6-morpholin-4-yl-1,3,5-triazin-2-yl}amino)cyclohexyl]-3-(2-morpholin-4-ylethyl)urea], the IC50 in test [1] turned out to be 0.0046 µM; in test [2], 0.33 µM.
Consider `FC(F)c1nc2ccccc2n1-c1nc(N[C@H]2CC[C@H](N3CCOCC3)CC2)nc(N2CCOCC2)n1` [Example 10, 4-[2-(difluoromethyl)-1H-benzimidazol-1-yl]-6-morpholin-4-yl-N-(trans-4-morpholin-4-ylcyclohexyl)-1,3,5-triazin-2-amine], for which the IC50 in test [1] was determined as 0.0071 µM; in test [2] it was 1.5 µM.
Regarding `CC(=O)N(C)[C@H]1CC[C@H](Nc2nc(N3CCOCC3)nc(-n3c(C(F)F)nc4ccccc43)n2)CC1` [Example 14, N-[trans-4-({4-[2-(difluoromethyl)-1H-benzimidazol-1-yl]-6-morpholin-4-yl-1,3,5-triazin-2-yl}amino)cyclohexyl]-N-methylacetamide], the IC50 was found to be 0.0044 µM in test [1] and 1.4 µM in test [2].
As to `O=S1(=O)CCCN1[C@H]1CC[C@H](Nc2cc(-n3c(C(F)F)nc4ccccc43)nc(N3CCOCC3)n2)CC1` [Example 18, 6-[2-(difluoromethyl)-1H-benzimidazol-1-yl]-N-[trans-4-(1,1-dioxidoisothiazolin-2-yl)cyclohexyl]-2-morpholin-4-ylpyrimidin-4-amine], the IC50 in test [1] was found to be 0.005 µM; in test [2], 2.9 µM.
Take `N[C@H]1CC[C@H](Nc2nc(N3CCOCC3)nc(-n3c(C(F)F)nc4ccccc43)n2)CC1` [Example 27]: the values for the IC50 in test [1] and in test [2] were 0.02 µM and 0.99 µM, respectively.
On to `O=C(N[C@H]1CC[C@H](Nc2nc(N3CCOCC3)nc(-n3c(C(F)F)nc4ccccc43)n2)CC1)C(O)CO` (stereo partly drawn) [Example 39], for which the values for the IC50 in test [1] and in test [2] were 0.0095 µM and 0.47 µM, respectively.
For the compound `CN(C)CC(=O)N(C)[C@H]1CC[C@H](Nc2nc(N3CCOCC3)nc(-n3c(C(F)F)nc4ccccc43)n2)CC1` [Example 47], the results for the IC50 in test [1] and in test [2] were 0.016 µM and 0.9 µM, respectively.
For `O=C(CS(=O)(=O)c1ccccc1)N[C@H]1CC[C@H](Nc2nc(N3CCOCC3)cc(-n3c(C(F)F)nc4ccccc43)n2)CC1` [Example 52] the same measures were 0.0034 µM and 2.7 µM.
Regarding `Cc1ccc(S(=O)(=O)NCC(=O)N[C@H]2CC[C@H](Nc3nc(N4CCOCC4)cc(-n4c(C(F)F)nc5ccccc54)n3)CC2)cc1` [Example 53], the figures for the IC50 in test [1] and in test [2] were 0.0046 µM and 2.7 µM, respectively.
Consider `O=S(=O)(N[C@H]1CC[C@H](Nc2cc(-n3c(C(F)F)nc4ccccc43)nc(N3CCOCC3)n2)CC1)c1ccccc1` [Example 95], for which the IC50 was 0.0049 µM in test [1] and 2.5 µM in test [2].
Regarding `Oc1ccccc1CN[C@H]1CC[C@H](Nc2nc(N3CCOCC3)nc(-n3c(C(F)F)nc4ccccc43)n2)CC1` [Example 104], the IC50 in test [1] is 0.0021 µM; in test [2] it was 0.81 µM.
With `CC(N[C@H]1CC[C@H](Nc2nc(N3CCOCC3)nc(-n3c(C(F)F)nc4ccccc43)n2)CC1)C1CCCCC1` (stereo partly drawn) [Example 107], in test [1], half-maximal inhibition (IC50) was put at 0.0088 µM.
As to `CC(N[C@H]1CC[C@H](Nc2nc(N3CCOCC3)nc(-n3c(C(F)F)nc4ccccc43)n2)CC1)c1ccccc1O` (stereo partly drawn) [Example 108], the results for the IC50 in test [1] and in test [2] were 0.0028 µM and 2.2 µM, respectively.
As for `CN1CCC[C@@H](C(=O)N[C@H]2CC[C@H](Nc3nc(N4CCOCC4)cc(-n4c(C(F)F)nc5ccccc54)n3)CC2)C1` [Example 112], the IC50 in test [1] was 0.0046 µM; in test [2], 1.4 µM.
For `O=C(NCc1ccc(F)cc1)N[C@H]1CC[C@H](Nc2nc(N3CCOCC3)nc(-n3c(C(F)F)nc4ccccc43)n2)CC1` [Example 116] the same measures were 0.0052 µM and 0.18 µM.
On to `N#Cc1ccc(NC(=O)N[C@H]2CC[C@H](Nc3nc(N4CCOCC4)cc(-n4c(C(F)F)nc5ccccc54)n3)CC2)cc1` [Example 123], for which the results for the IC50 in test [1] and in test [2] were 0.00085 µM and 0.46 µM, respectively.
`N#Cc1ccc(NC(=O)N[C@H]2CC[C@H](Nc3cc(-n4c(C(F)F)nc5ccccc54)nc(N4CCOCC4)n3)CC2)cc1` [Example 125]: the IC50 is 0.0018 µM in test [1] and greater than 3 µM in test [2].
As to `O=C(N[C@H]1CC[C@H](Nc2nc(N3CCOCC3)cc(-n3c(C(F)F)nc4ccccc43)n2)CC1)[C@@H]1CCCN1` [Example 154], the IC50 in test [1] was determined as 0.0038 µM; in test [2], 1.8 µM.
Turning to `O=C1CCCN1[C@H]1CC[C@H](Nc2cc(-n3c(C(F)F)nc4ccccc43)nc(N3CCOCC3)n2)CC1` [Example 185], the values for the IC50 in test [1] and in test [2] were 0.0043 µM and greater than 3 µM, respectively.
As for `O=C(CN1CCCC1)N[C@H]1CC[C@H](Nc2nc(N3CCOCC3)cc(-n3c(C(F)F)nc4ccccc43)n2)CC1` [Example 187], the IC50 in test [1] was 0.0091 µM.
Consider `O=C(CN1CCCCCC1)N[C@H]1CC[C@H](Nc2cc(-n3c(C(F)F)nc4ccccc43)nc(N3CCOCC3)n2)CC1` [Example 190], for which the 50% inhibitory concentration (IC50) in test [1] was 0.0041 µM; in test [2], greater than 3 µM.
For the compound `CC(=O)N[C@H]1CC[C@H](Nc2nc(N3CCOCC3)nc(-n3c(C(F)F)nc4ccccc43)n2)CC1` [Example 193], the IC50 in test [1] was 0.023 µM; in test [2], 0.55 µM.
As for `CN(C)CCC(=O)N[C@H]1CC[C@H](Nc2nc(N3CCOCC3)cc(-n3c(C(F)F)nc4ccccc43)n2)CC1` [Example 208], the figures for the IC50 in test [1] and in test [2] were 0.0086 µM and 2.3 µM, respectively.
For `O=S1(=O)CCCN1[C@H]1CC[C@H](COc2cc(-n3c(C(F)F)nc4ccccc43)nc(N3CCOCC3)n2)CC1` [Example 209], the figures for the IC50 in test [1] and in test [2] were 0.02 µM and 2.8 µM, respectively.
Turning to `CC(C)(C)OC(=O)NC(C)(C)C(=O)N[C@H]1CC[C@H](Nc2nc(N3CCOCC3)cc(-n3c(C(F)F)nc4ccccc43)n2)CC1` [Example 210], the IC50 in test [1] was found to be 0.022 µM; in test [2], 5.1 µM.
Regarding `FC(F)c1nc2ccccc2n1-c1cc(OC[C@H]2CC[C@H](N3CCOCC3)CC2)nc(N2CCOCC2)n1` [Example 216], the results for the IC50 in test [1] and in test [2] were 0.0056 µM and greater than 3 µM, respectively.
For `O=S1(=O)CCN([C@H]2CC[C@H](CNc3cc(-n4c(C(F)F)nc5ccccc54)nc(N4CCOCC4)n3)CC2)CC1` [Example 229], the IC50 came out at 0.01 µM in test [1] and 6.7 µM in test [2].
Consider `O=S1(=O)CCN([C@H]2CC[C@H](CNc3nc(N4CCOCC4)cc(-n4c(C(F)F)nc5ccccc54)n3)CC2)CC1` [Example 231], for which the results for the half-maximal inhibitory concentration (IC50) in test [1] and in test [2] were 0.0082 µM and 1.5 µM, respectively.
As to `CC(F)CN(C)[C@H]1CC[C@H](CNc2nc(N3CCOCC3)cc(-n3c(C(F)F)nc4ccccc43)n2)CC1` (stereo partly drawn) [Example 330], the IC50 in test [1] is 0.0086 µM; in test [2], 5.5 µM.
In the case of `CCN(C(C)CF)[C@H]1CC[C@H](CNc2nc(N3CCOCC3)cc(-n3c(C(F)F)nc4ccccc43)n2)CC1` (stereo partly drawn) [Example 344], the IC50 came to 0.014 µM in test [1] and 1 µM in test [2].
With `CC(F)C(C)N(C)[C@H]1CC[C@H](CNc2nc(N3CCOCC3)cc(-n3c(C(F)F)nc4ccccc43)n2)CC1` (stereo partly drawn) [Example 384], the IC50 in test [1] turned out to be 0.016 µM; in test [2], 1.6 µM.
On to `CC(C)(O)CN(CC(C)(C)O)[C@H]1CC[C@H](CNc2nc(N3CCOCC3)cc(-n3c(C(F)F)nc4ccccc43)n2)CC1` [Example 396], for which the results for the concentration for half-maximal inhibition (IC50) in test [1] and in test [2] were 0.013 µM and 2.3 µM, respectively.
Consider `CCOCCN(C)[C@H]1CC[C@H](CNc2nc(N3CCOCC3)cc(-n3c(C(F)F)nc4ccccc43)n2)CC1` [Example 397], for which the IC50 in test [1] was found to be 0.023 µM; in test [2], 2.9 µM.
For the compound `COCCN(CC(C)(C)O)[C@H]1CC[C@H](CNc2nc(N3CCOCC3)cc(-n3c(C(F)F)nc4ccccc43)n2)CC1` [Example 401], the IC50 in test [1] is 0.015 µM; in test [2], 3.5 µM.
Consider `CCN(CC(C)(C)O)[C@H]1CC[C@H](CNc2nc(N3CCOC[C@H]3C)cc(-n3c(C(F)F)nc4ccccc43)n2)CC1` [Example 402], for which the IC50 in test [1] was determined as 0.0036 µM; in test [2] it was 0.61 µM.
The matching figures for `C#CCN(CC#C)[C@H]1CC[C@H](CNc2nc(N3CCOCC3)cc(-n3c(C(F)F)nc4ccccc43)n2)CC1` [Example 423]: 0.011 µM and 4.2 µM.
